Test results from patent publication US10098849B2, “Anti-radical agents” (BASF SE, priority 2004, dated 2018).
Where two headings read alike, the source gives them in different places.

Legend:
[1] = test system: Primary human dermal fibroblasts (HDF-N2)
Experimental: Cell cultures: Primary human dermal fibroblasts (HDF-N2) are maintained in Dulbecco's culture media (DMEM; 1 g/l glucose), supplemented with 10% of fetal calf serum (FCS), 100 μg/ml of streptomycin sulphate, 100 μml of penicillin and 2 mM of L-glutamine, all of them from Biowhitaker, USA. Confluent cells are detached by incubation for 3 minutes in 0.055 trypsin/0.53 mM EDTA at 37° C. and plated at the established cell density (normally, 15×10^4 cells/cm^2).
Culture media of negative controls are containing 10 mMol NaCl or 0.05% DMSO or 0.05% ethanol, respectively. Positive control is a culture medium containing 0.02% of Sodium Lauryl Sulfate (SDS).
For comparative purposes, a further culture medium is used containing the compound of the formula

[2] = test system: squalene peroxidation (squalenehydroperoxide) in skin lipids; experiment: Efficacy against photooxidative stress in the skin induced by UVA irradiation (squalenehydroperoxide, HPLC); format: in vivo, human
Experimental: Anti-oxidant activity in vivo is measured via the capacity of a test compound to reduce radical induced lipid-peroxidation. • Persons tested: 10 individuals (4 female, 6 male); age range: 18 to 32 years • Body region tested: inner forearm • Application phase: once a day • Test period 7 days • Evaluation method: Determination of squalene • Determination of squalenehydroperoxide • Time of Evaluation: after UVA radiation • Evaluation: Descriptive statistics: average, median, minimum, maximum, variance, standard error, standard deviation; Multiple range test. Test Method
On the inner forearm of each subject symmetrically opposed areas are defined. The different formulations are applied once a day at a dose of about 2 mg of test solution/cm^2 for one week (application with a syringe for fine dosage: Omnifix®-F 1 ml; manufacturer: Braun Melsungen AG, Germany).
Two areas remain untreated.
The unique application of a solution of tocopherol in ethanol (0.2%) before irradiation serves as control.
Use of other cosmetic products is restricted on the test areas throughout the whole study. The areas (exception: one of the two untreated areas was not irradiated and can be attributed to environmental UVA radiation during the test) of the […] were then irradiated with UVA light (10 joule/cm^2). The lipids present on the test areas are harvested via a solvent extraction (4 ml ethanol for 2 minutes). The samples are first filtered through hydrophobic polypropylene filters to decant squames and other insoluble material, then dried under nitrogen at room temperature and taken up in 1 ml ethanol. Squalene (SQ) and squalenehydroperoxide (SQOOH) are then analysed by High Performance Liquid Chromatography (HPLC).
The fluorometer is used as a photon detector with the excitation source turned off.
This assay measures the hydroperoxy groups themselves and not indirect indices of lipid peroxidation such as conjugated dienes or breakdown products of lipid hydroperoxides. Chemiluminescence also detects ubiquinols. To confirm that any chemiluminescence observed in this assay was due to a hydroperoxide, not a hydroquinone, some samples were reduced with triphenyl phosphine and rerun.
Measuring data are centrally computerised after validity check and quality assurance. Evaluation is done using the software Statgraphics for Windows, Version 5.0—Manugistics, USA. Data are analysed by multiple range test (LSD: Least Significant Differences). The 0.05 level is selected as the point of minimal acceptance statistical significance.

[3] = 1% b.w. solution in ethanol, about 2 mg/cm^2 once a day for 7 days, inner forearm, UVA 10 joule/cm^2, 10 individuals
[4] = 5% stock solution in DMSO or ethanol diluted 1:500 in culture medium with 10% FCS, 48 h HDF cultures, more absorption = more viable cells

CCCCCCCCCCCCOS(=O)(=O)[O-].[Na+] [SDS, Sodium Lauryl Sulfate, reference compound]
Absorbance (OD450) after 24 h treatment ([1]; positive control, culture medium containing 0.02% Sodium Lauryl Sulfate, 48 h HDF cultures): 0.25

CC(c1cc(C(C)(C)C)cc(C(C)(C)C)c1O)c1cc(C(C)(C)C)cc(C(C)(C)C)c1O [AO4]
Absorbance (OD450) after 24 h treatment ([1]; human, 24 h, 0.01 %): 1.0
average inhibition in % of peroxidation (SQOOH relative to untreated area) [2, 3]: 28%

Cc1c(C)c2c(c(C)c1O)CC[C@@](C)(CCC[C@H](C)CCC[C@H](C)CCCC(C)C)O2 [Control, tocopherol, reference compound]
average inhibition in % of peroxidation (SQOOH relative to untreated area) ([2]; unique application of tocopherol in ethanol (0.2%) before irradiation, UVA 10 joule/cm^2): 22.5%

CC1(C)CC(O)CC(C)(C)N1O [AO8]
Absorbance (OD450) after 24 h treatment [1, 4]: 1.65
average inhibition in % of peroxidation (SQOOH relative to untreated area) [2, 3]: 21%

CC(C)Cc1ccc(Oc2ccccc2)cc1O [comparison, reference compound]
Absorbance (OD450) after 24 h treatment ([1]; human, 24 h, 0.01 %): 0.25

CC(C)(C)c1cc(CCC(=O)Nc2ccc(S(=O)(=O)[O-])cc2)cc(C(C)(C)C)c1O.[Na+] [AO6]
Absorbance (OD450) after 24 h treatment ([1]; human, 24 h, 0.01 %): 1.9
average inhibition in % of peroxidation (SQOOH relative to untreated area) [2, 3]: 28%

pentaerythritol-tetrakis(3-[3′,5′-di-tert.butyl-4′-hydroxyphenyl]-propionate) [AO7]
Absorbance (OD450) after 24 h treatment [1, 4]: 2.0
average inhibition in % of peroxidation (SQOOH relative to untreated area) ([2]; 0.1% b.w. solution in ethanol, about 2 mg/cm^2 once a day for 7 days, inner forearm, UVA 10 joule/cm^2, 10 individuals): 21.5%
